Experimental data taken from patent US20110034335A1, “Treatment of Ornamental Plants” (priority 2009, published 2011).

What was measured:
Assay in all cases: Racks of flowering plants sprayed, truck 14 hours, ethylene challenge (Example 8)
Type in all cases: in vivo
Conditions in all cases: 25 mg/L, 200 ml/square meter, scale 0 (poor) to 2 (good)
Verbena “babylon Red” = test system: Verbena “babylon Red”
Protocol: (§1) Spray applications were made using (unless otherwise noted) AFxRD-038 powder containing 3.8% active ingredient, i.e. 1-MCP, and also containing dextrose, alpha-cyclodextrin, and amino acid salt. Rates listed are for active ingredient e.g. 5 mg active ingredient per liter. Sprayed liquid contained (unless otherwise noted) AFxRD-038 powder added to water. AFxRD-038 powder was obtained from AgroFresh Inc. The water used (unless otherwise noted) was tap water. Applications were done in 500 ml spray bottles at rates typical for growth regulators applications in the ornamental industry i.e., 200 ml per square meter. Spraying was done within 5-15 minutes of mixing the formulation. Plants were allowed to dry for 1-4 hours before being challenged with ethylene (2 ppm for about 16 hours at ambient temperatures).
(§2) Racks of flowers were sprayed with spray liquid containing 25 mg/L at rate of 200 ml/square meter. Racks were then placed into a full enclosed truck (length 7.3 meter) for 14 hours. Plants were then challenged with ethylene and evaluated 3 and 7 days later, using a rating scale from 0 (poor) to 2 (good). […]

Snapdragon (yellow) = test system: Snapdragon (yellow)
Protocol: as §1, §2

Petunia “Royal Velvet” = test system: Petunia “Royal Velvet”
Protocol: as §1, §2

Impatiens (dark pink) = test system: Impatiens (dark pink)
Protocol: as §1, §2

Dianthus (mixed) = test system: Dianthus (mixed)
Protocol: as §1, §2

Dianthus “Ideal White” = test system: Dianthus “Ideal White”
Protocol: as §1, §2

## CC1=CC1 [1-MCP, 1-methylcyclopropene]
Verbena “babylon Red”; Day 3
  rating, Sprayed: 0.58 a
Verbena “babylon Red”; Day 7
  rating, Sprayed: 0.19 a
Snapdragon (yellow); Day 3
  rating, Sprayed: 0.83 a
Snapdragon (yellow); Day 7
  rating, Sprayed: 0.58 a
Petunia “Royal Velvet”; Day 3
  rating, Sprayed: 1.00 a
Petunia “Royal Velvet”; Day 7
  rating, Sprayed: 0.38 a
Impatiens (dark pink); Day 3
  rating, Sprayed: 1.00 a
Impatiens (dark pink); Day 7
  rating, Sprayed: 0.83 a
Dianthus (mixed); Day 3
  rating, Sprayed: 0.58 a
Dianthus (mixed); Day 7
  rating, Sprayed: 0.25 a
Dianthus “Ideal White”; Day 3
  rating, Sprayed: 0.92 a
Dianthus “Ideal White”; Day 7
  rating, Sprayed: 1.00 a
